Experimental data published in US20250017888A1, “COMPOUNDS FOR TREATING DISEASES ASSOCIATED WITH HYALURONAN OVERPRODUCTION” (THE ROYAL VETERINARY COLLEGE, priority 2021, published 2025).

Tests used:
Str/ort mice [1] = experiment: Health evaluation of treated Str/ort mice; assay type: in vivo, mouse; conditions: 50 mg/kg intraperitoneally, 18 weeks, vs vehicle
Procedure: At 10-13 weeks of age, 21 male Str/ort mice (n=7/group) were assigned randomly to vehicle, hylin-betaine and xantho-betaine groups and were treated intraperitoneally 18 weeks with either vehicle (5% DMSO in 95% peanut oil), 50 mg/kg compound of Example 1 (“hylin-betaine”) in 5% DMSO and 95% peanut oil or 50 mg/kg compound of Example 2 (“xantho-betaine”) in 5% DMSO and 95% peanut oil.
To assess the health status after hylin-betaine and xantho-betaine treatment, mice were monitored for their health status. The monitoring criteria were body surface temperature, body weight, gait, coat condition, skin tenting for dehydration, hunching, activity, breathing rate and general body condition. Mice were scored blind for each one of these criteria from 1-5 except for body weight and temperature.

[2] = system: bovine cartilage explants; experiment: Proteoglycan loss from interleukin activated bovine cartilage explants; assay type: cell-based
Procedure: Cartilage explants were weighed (average wet weight: 20 mg) incubated in the absence and presence of IL-1 (2 ng/ml) and the inhibitors at various concentrations for 5 days. The tissues were extracted with 1.5 ml of a solution of 4 M guanidinium hydrochloride, 0.1 M ε-aminohexanoid acid, 5 mM benzamidine, 10 mM N-ethylmaleinimide, 0.5 mM phenylmethylsulfonyl fluoride for 3 days at 4° C. The solution was centrifuged for 5 min at 10.000 g and the proteoglycans were determined in the supernatant by the alcian blue method as described (Bjornsson, S., Anal. Biochem., 1993, 210, 282-291).
Bovine cartilage explants were incubated in the absence and presence of interleukin for stimulation of osteoarthritic reactions and the indicated concentrations of the xanthohumol-betaine (FIG. 6A), xanthohumol-prothiazole (FIG. 6B), quercetin-prothiazole (FIG. 6C), quercetin (FIG. 6D) and xanthohumol (FIG. 6E) for 5 days. The cartilage explants were weighed and the proteoglycan concentrations were determined in the cartilage explants (solid bars) and culture supernatants (open bars).

Str/ort mice [3] = experiment: Histology and grading of articular cartilage lesions in Str/ort mice; assay type: in vivo, mouse
Procedure: At 10-13 weeks of age, 21 male Str/ort mice (n=7/group) were assigned randomly to vehicle, hylin-betaine and xantho-betaine groups and were treated intraperitoneally 18 weeks with either vehicle (5% DMSO in 95% peanut oil), 50 mg/kg compound of Example 1 (“hylin-betaine”) in 5% DMSO and 95% peanut oil or 50 mg/kg compound of Example 2 (“xantho-betaine”) in 5% DMSO and 95% peanut oil. Dissected right knees were fixed in neutral buffered formalin, decalcified (Immunocal, Quartett, Berlin), wax-embedded and 6 μm coronal sections cut. Multiple sections (five/slide) from 120 μm intervals across the whole joint were stained with Tollidine blue (0.1% in 0.1 M acetate buffer, pH 5.6) and AC lesion severity graded. Sections from right vehicle, hylin-betaine and xantho-betaine treated Str/ort joints were stained with Safranin O. Sections were dewaxed, and AC lesion severity was scored in Str/ort mice by the methods of Chambers et al., (Chambers et al Expression of collagen and aggrecan genes in normal and osteoarthritic murine knee joints. Osteoarthritis and cartilage/OARS, Osteoarthritis Research Society. 2002; 10(1):51-61) consistent with an internationally-recognized system. Briefly, grade 0: normal; grade 1: rough surface or superficial zone lesions; grade 2: lesion down to the intermediate zone; grade 3: lesions down to tidemark or loss of AC; grades 4 and 5: AC loss across between 20% and 50% or 50-80% of condylar surface; grade 6: loss with subchondral bone exposure. Multiple slides (˜10), each containing five 6 μm sections sampled at 120 μm intervals spanning each entire joint were graded. Grading in each joint compartment (lateral/medial, tibia/femur) allowed for a maximum (most severe) grade to be assigned in each section, and used to produce an overall ‘average’ maximum grade in each group of mice, for the entire joint and for each compartment. In addition, a mean score was produced for each joint and for each compartment and these similarly used to produce an overall ‘average’ mean grade in each group of mice. Mean grades provide a measure of the ‘extent’ of AC lesion (representing relative volume) in each joint/compartment.

COc1cc(O)c(CC=C(C)C)c(O)c1C(=O)/C=C/c1ccc(OC(=O)C[N+](C)(C)C)cc1.[Cl-] [Xantho-betaine, (E)-2-(4-(3-(2,4-dihydroxy-6-methoxy-3-(3-methylbut-2-en-1-yl)phenyl)-3-oxoprop-1-en-1-yl)phenoxy)-N,N,N-trimethyl-2-oxoethanaminium chloride]
health status: weight, hunching, gait, activity, vocalisation and respiration scores, coat condition (Str/ort mice [1]): does not alter
IC50 ([2]; Bos taurus, read-out: IC50 Inhibition of proteoglycan loss): 0.3 µM
inhibition of proteoglycan loss (protective effect) ([2]; interleukin stimulated, 5 days): similarly effective
effect on articular cartilage lesions / development of OA (overall) (Str/ort mice [3]; 50 mg/kg intraperitoneally, 18 weeks, vs vehicle): no such protection
maximum OA score (Str/ort mice [3]; vs vehicle treated Str/ort mice): not found to be statistically significant
